# In US20260091086A1, “POLYPEPTIDE COMBINATIONS AND USES THEREOF” (MEDIMMUNE LIMITED, priority 2024, published 2026):
# Numbered stars: 1 amine (or outer) side, 2 acyl side, 3 side chain; on linkers, the order of the positions; unused ones are H or OH. Square brackets hold non-standard residues; d marks the D form. Side chains are listed from the residue outwards. Ends that are not written are not given here. * marks the point of attachment. C18 diacid = O=C(O)CCCCCCCCCCCCCCCCC(=O)*; γGlu = O=C(O)[C@H](CCC(=O)[*:2])N[*:1]; αMeF = C[C@](N)(Cc1ccccc1)C(=O)O; AEEA = NCCOCCOCC(=O)O; Aib = CC(C)(N)C(=O)O
# Assays:
# DIO rats = assay: Example 7: 28-day LAA and GLP/GIP dual agonist study; assay type: in vivo, rat; conditions: for body weight change: day 28
# Method: Study Design: Male rats were fed a high-fat diet (45% kcal fat-D12451; Research Diets) or chow control matched diet (10% kcal fat-D12450K; […] Control rats were dosed SC with Vehicle. Body weight was monitored daily through-out study and body composition measured by EchoMRI at baseline (week-1) and end of study (week 4). […]
# [1] = biological target: human amylin receptor 3 (hAMY3R; complex of hCTR and hRAMP3) (human); assay: cell-based or functional assay
# Sequence of human amylin receptor 3 (hAMY3R; complex of hCTR and hRAMP3) (human) (chain, as listed by the source limits assumed, chain 1 of 2): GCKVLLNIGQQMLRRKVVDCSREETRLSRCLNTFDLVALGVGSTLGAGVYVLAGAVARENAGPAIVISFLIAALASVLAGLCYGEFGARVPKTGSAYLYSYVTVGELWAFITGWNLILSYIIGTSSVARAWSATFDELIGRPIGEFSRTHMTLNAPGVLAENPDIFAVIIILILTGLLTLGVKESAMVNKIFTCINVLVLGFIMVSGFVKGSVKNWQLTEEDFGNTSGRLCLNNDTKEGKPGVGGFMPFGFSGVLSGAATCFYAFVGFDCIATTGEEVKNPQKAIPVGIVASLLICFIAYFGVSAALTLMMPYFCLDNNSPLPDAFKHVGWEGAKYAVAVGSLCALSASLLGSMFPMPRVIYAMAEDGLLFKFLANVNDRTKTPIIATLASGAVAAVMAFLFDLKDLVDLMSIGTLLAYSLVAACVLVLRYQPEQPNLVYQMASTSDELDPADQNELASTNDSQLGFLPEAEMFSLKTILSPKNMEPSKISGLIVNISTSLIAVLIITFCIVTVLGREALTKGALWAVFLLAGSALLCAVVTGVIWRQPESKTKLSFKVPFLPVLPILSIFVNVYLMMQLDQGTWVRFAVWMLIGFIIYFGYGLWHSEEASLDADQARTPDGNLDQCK
# Sequence of human amylin receptor 3 (hAMY3R; complex of hCTR and hRAMP3) (human) (chain, as listed by the source limits assumed, chain 2 of 2): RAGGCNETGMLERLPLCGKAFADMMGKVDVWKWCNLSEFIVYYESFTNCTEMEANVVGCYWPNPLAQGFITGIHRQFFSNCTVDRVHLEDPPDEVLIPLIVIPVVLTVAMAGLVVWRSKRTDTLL
# [2] = biological target: rat amylin receptor (calcitonin receptor plus RAMP3) (rat) (UniProt P32214); assay: cell-based or functional assay
# Sequence of rat amylin receptor (calcitonin receptor plus RAMP3) (rat) (P32214 25-516, chain 1 of 2): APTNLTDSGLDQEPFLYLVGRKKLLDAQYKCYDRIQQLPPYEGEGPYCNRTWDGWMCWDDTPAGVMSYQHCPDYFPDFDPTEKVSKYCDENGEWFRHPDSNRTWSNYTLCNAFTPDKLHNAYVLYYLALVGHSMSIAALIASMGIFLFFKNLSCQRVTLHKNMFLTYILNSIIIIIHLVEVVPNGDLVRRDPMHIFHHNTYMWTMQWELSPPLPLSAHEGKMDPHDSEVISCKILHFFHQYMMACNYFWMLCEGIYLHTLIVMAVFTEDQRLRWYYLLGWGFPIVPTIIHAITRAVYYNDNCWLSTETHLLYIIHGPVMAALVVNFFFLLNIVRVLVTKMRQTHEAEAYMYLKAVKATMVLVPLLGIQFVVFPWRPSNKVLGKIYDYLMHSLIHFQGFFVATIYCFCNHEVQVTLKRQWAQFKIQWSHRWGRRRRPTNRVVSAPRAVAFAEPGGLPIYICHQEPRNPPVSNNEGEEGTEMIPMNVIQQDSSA
# Sequence of rat amylin receptor (calcitonin receptor plus RAMP3) (rat) (Q9JJ73 23-147, chain 2 of 2, further chain): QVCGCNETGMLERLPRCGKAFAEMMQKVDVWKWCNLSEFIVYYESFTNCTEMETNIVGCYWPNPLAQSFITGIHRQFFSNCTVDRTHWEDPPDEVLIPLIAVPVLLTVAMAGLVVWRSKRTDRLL
# AMY3R/CTR [3] = assay: Relative potency ratio, cAMP accumulation assays with 0.1% BSA, rat receptors; assay type: cell-based; conditions: 0.1% bovine serum albumin, n ≥ 5; potencies relative to pramlintide 100%
# Method: Target engagement was estimated in the following way for each compound. The maximum concentration (Cmax) after subcutaneous injection was measured in separate rat pharmacokinetic studies and was dose-adjusted to the tested dose levels when appropriate, assuming dose linearity. Plasma protein binding was determined in vitro using 3B Pharmaceutical's Escalate Equilibrium Shift Assay or an in-house Surface Plasmon Resonance (SPR) assay. Peptide in vitro potency was determined via HTRF CAMP accumulation assay using HEK293 cells recombinantly expressing the rat calcitonin receptor or rat amylin receptor (calcitonin receptor plus RAMP3) in saline buffer containing 0.1% bovine serum albumin. The in vitro potencies (IC50s) for amylin and calcitonin were adjusted to unbound values by taking into account the albumin concentration in the assay and fraction unbound data, according to an established method (Wan H and Bergström F (2007), High Throughput Screening of Drug-Protein Binding in Drug Discovery, Journal of Liquid Chromatography & Related Technologies, 30:5, 681-700; doi: 10.1080/10826070701190989). Finally, the target engagement was calculated as the unbound Cmax divided by the unbound IC50, both for amylin and calcitonin. The Emax model was defined as aversion=E0+Emax×(ENG^h/(ENG^h+ED50^h)), where E0 is the baseline aversion, Emax is the maximum induced aversion, ENG is the receptor engagement, and h is the slope (Hill) parameter. Parameter estimation was performed according to a maximum likelihood approach with an additive error model, incorporating data from all compounds simultaneously. Uncertainty of parameter estimates was determined by bootstrapping, sampling single measurements randomly with replacement within each experiment (N=500). Numeric analyses were performed in MATLAB (R2023b; The MathWorks, Natick, MA). The aversion data are given as mean and standard error (N=9-11 per group). In this experiment, the LAA/SARA1 was that of SEQ ID NO: 11, SARA2 was eloralintide, DACRA1 was cagrilintide, and DACRA2 was petrelintide.
# AMY3R/CTR [4] = assay: Relative potency ratio, cAMP accumulation assays with 0.1% BSA, human receptors; assay type: cell-based; conditions: 0.1% bovine serum albumin, n ≥ 5; potencies relative to pramlintide 100%
# Wistar Han rats = assay: Example 4: 3-month subcutaneous study, body weight; assay type: in vivo, rat; conditions: for Body Weight Comparison, Day 92 vs. Control Group 1 Day 92 / Body Weight Gain (Day 92 vs Day −1) / Mean Body Weight at Day 92: dose levels 0/5, Group 5
# Method: Study Design: Male (9-11 weeks of age) and female (10-11 weeks of age) Wistar Han rats were SC administered with Vehicle/Vehicle (group 1—for LAA of SEQ ID NO: 11 and GLP-1/GCG of SEQ ID NO: 35), LAA of SEQ ID NO: 11 and GLP-1/GCG of SEQ ID NO: 35 (group 2—500 and 5 μg/kg respectively), LAA of SEQ ID NO: 11 and GLP-1/GCG of SEQ ID NO: 35 (group 3—2000 and 5 μg/kg respectively), SEQ ID NO: 11 and Vehicle for SEQ ID NO: 35 (group 4—2000 μg/kg and 0 μg/kg respectively), or Vehicle for SEQ ID NO: 11 and SEQ ID NO: 35 (group 5—0 and 5 μg/kg respectively) daily for 91 days. Dosing for LAA of SEQ ID NO: 11 was dose escalated with group 2 receiving 250 μg/kg from day 1-5 and 500 μg/kg for duration of study, and groups 3 and 4 receiving 250 μg/kg SEQ ID NO: 11 from day 1-5, 500 μg/kg SEQ ID NO: 11 from days 7-13 and 2000 μg/kg for duration of study. There was a n=10/group per gender.
# [5] = GLP/GIP mono-treatment 2 nmol/kg
# [6] = GLP/GIP mono-treatment 30 nmol/kg
Molecule,"Relative potency ratio (AMY3R/CTR), Human; cAMP accumulation assay, 0.1% BSA [1]","Relative potency ratio (AMY3R/CTR), Rat; cAMP accumulation assay, 0.1% BSA [2]","Relative potency ratio (AMY3R/CTR), Rat (AMY3R/CTR [3])","Relative potency ratio (AMY3R/CTR), Human (AMY3R/CTR [4])",further results
tirzepatide [GLP/GIP],–,–,–,–,"change in lean mass (g) (DIO rats; [5]): no effect at 2 nmol/kg; change in lean mass (g) (DIO rats; [6]): significant reduction vs. vehicle; body weight change (DIO rats; [5]): −1.7%; body weight change (DIO rats; [6]): −8.9%; body weight change (DIO rats; mono-treatment 10 nmol/kg SC QD): −8.1%; change in fat mass (g) (DIO rats; end of study (week 4), EchoMRI, FIG. 6C): dose-dependent decrease in fat mass; change in lean mass (g) (DIO rats; end of study, EchoMRI, mono-treatment, FIG. 6D): dose-dependent decrease of lean mass"
DACRA 2 (petrelintide) (peptide),0.05,0.03,–,–,–
DACRA 1 (cagrilintide) (peptide),0.08,0.01,–,–,–
SARA 2 (eloralintide) (peptide),0.24,0.14,–,–,–
hAmylin (from UniProt P10997 34-70) (peptide),1.8,0.9,–,–,–
eloralintide [SARA 2],–,–,0.14,0.24,–
CC[C@H](C)[C@H](NC(=O)[C@@H]1CCCN1C(=O)CNC(=O)[C@H](Cc1ccccc1)NC(=O)[C@H](CC(N)=O)NC(=O)[C@H](CC(N)=O)NC(=O)[C@H](CO)NC(=O)[C@H](CO)NC(=O)[C@H](Cc1c[nH]cn1)NC(=O)[C@@H](NC(=O)[C@H](CC(C)C)NC(=O)[C@H](Cc1ccccc1)NC(=O)[C@H](CC(N)=O)NC(=O)[C@H](C)NC(=O)[C@H](CC(C)C)NC(=O)[C@H](CCCNC(=N)N)NC(=O)[C@H](CCC(N)=O)NC(=O)[C@@H](NC(=O)[C@H](C)NC(=O)[C@@H]1CSSC[C@H](NC(=O)[C@@H](N)CCCCN)C(=O)N[C@@H](CC(N)=O)C(=O)N[C@@H]([C@@H](C)O)C(=O)N[C@@H](C)C(=O)N[C@@H]([C@@H](C)O)C(=O)N1)[C@@H](C)O)C(C)C)C(=O)N[C@@H](CC(C)C)C(=O)N1CCC[C@H]1C(=O)N1CCC[C@H]1C(=O)N[C@H](C(=O)N[C@@H](CC(N)=O)C(=O)N[C@H](C(=O)NCC(=O)N[C@@H](CO)C(=O)N[C@@H](CC(N)=O)C(=O)N[C@H](C(=O)N[C@@H](Cc1ccc(O)cc1)C(N)=O)[C@@H](C)O)C(C)C)[C@@H](C)O [Pramlintide],–,–,1.0,1.0,–
"hAmylin: human amylin, non-lipidated (KCNTATCATQRLANFLVHSSNNFGAILSSTNVGSNTY; not fully specified (C-terminus, bridges); cysteine pairing not given here)",–,–,0.9,1.8,–
H(Aib)QGTFTSDVSK(αMePhe)LDTK(O2Oc-O2Oc-γE-C18diacid)RARDFVQWLLE(Aib)G-acid (H[Aib]QGTFTSDVSK[αMeF]LDTK([AEEA-AEEA-γGlu-C18 diacid])RARDFVQWLLE[Aib]G-OH; N-terminus assumed; SMILES CC(C)C[C@H](NC(=O)[C@H](Cc1c[nH]c2ccccc12)NC(=O)[C@H](CCC(N)=O)NC(=O)[C@@H](NC(=O)[C@H](Cc1ccccc1)NC(=O)[C@H](CC(=O)O)NC(=O)[C@H](CCCNC(=N)N)NC(=O)[C@H](C)NC(=O)[C@H](CCCNC(=N)N)NC(=O)[C@H](CCCCNC(=O)COCCOCCNC(=O)COCCOCCNC(=O)CC[C@H](NC(=O)CCCCCCCCCCCCCCCCC(=O)O)C(=O)O)NC(=O)[C@@H](NC(=O)[C@H](CC(=O)O)NC(=O)[C@H](CC(C)C)NC(=O)[C@](C)(Cc1ccccc1)NC(=O)[C@H](CCCCN)NC(=O)[C@H](CO)NC(=O)[C@@H](NC(=O)[C@H](CC(=O)O)NC(=O)[C@H](CO)NC(=O)[C@@H](NC(=O)[C@H](Cc1ccccc1)NC(=O)[C@@H](NC(=O)CNC(=O)[C@H](CCC(N)=O)NC(=O)C(C)(C)NC(=O)[C@@H](N)Cc1c[nH]cn1)[C@@H](C)O)[C@@H](C)O)C(C)C)[C@@H](C)O)C(C)C)C(=O)N[C@@H](CC(C)C)C(=O)N[C@@H](CCC(=O)O)C(=O)NC(C)(C)C(=O)NCC(=O)O) [GLP-1/GCG of SEQ ID NO: 35],–,–,–,–,"Body weight at study day 92 vs Vehicle (Wistar Han rats; both male and female, groups 2-5): significantly lower; Body Weight Comparison, Day 92 vs. Control Group 1 Day 92 (Wistar Han rats; female): 90%; Body Weight Gain (Day 92 vs Day −1) (Wistar Han rats; female): 112%; Mean Body Weight at Day 92 (Wistar Han rats; female): 225.4 grams; Body Weight Comparison, Day 92 vs. Control Group 1 Day 92 (Wistar Han rats; male): 80%; Body Weight Gain (Day 92 vs Day −1) (Wistar Han rats; male): 119%; Mean Body Weight at Day 92 (Wistar Han rats; male): 325.5 grams"
petrelintide [DACRA 2],–,–,0.03,0.05,–
